Take `Cc1cc(OC[C@@H](O)CO)ccc1NC(=O)Cc1ccc(C)c(Oc2cc(Cl)cc(C#N)c2)c1` [Compound I-150, 2-[3-(3-Chloro-5-cyano-phenoxy)-4-methyl-phenyl]-N-[4-((S)-2,3-dihydroxy-propoxy)-2-methyl-phenyl]-acetamide]: the melting point was in the range of 137.5 to 138.4 °C.
Regarding `Cc1cc(OCC[C@@H](O)CO)ccc1NC(=O)Cc1ccc(C)c(Oc2cc(Cl)cc(C#N)c2)c1` [Compound I-151, 2-[3-(3-Chloro-5-cyano-phenoxy)-4-methyl-phenyl]-N-[4-((R)-3,4-dihydroxy-butoxy)-2-methyl-phenyl]-acetamide], the melting point lay in the range of 104.9 to 106.4 °C.
As for `Cc1cc(S(=O)(=O)CC(=O)O)ccc1NC(=O)Cc1ccc(C)c(Oc2cc(Cl)cc(C#N)c2)c1` [Compound I-152, (4-{2-[3-(3-Chloro-5-cyano-phenoxy)-4-methyl-phenyl]-acetylamino}-3-methyl-benzenesulfonyl)-acetic acid], the figure is 180.5 to 181.4 °C.
With `Cc1cc(S(=O)(=O)CCN)ccc1NC(=O)Cc1ccc(C)c(Oc2cc(Cl)cc(C#N)c2)c1` [Compound I-154, N-[4-(2-Amino-ethanesulfonyl)-2-methyl-phenyl]-2-[3-(3-chloro-5-cyano-phenoxy)-4-methyl-phenyl]-acetamide], the melting point lay within 92.4 to 95.5 °C.
With `Cc1cc(S(=O)(=O)CCCO)ccc1NC(=O)Cc1ccc(C)c(Oc2cc(Cl)cc(C#N)c2)c1` [Compound I-157, 2-[3-(3-Chloro-5-cyano-phenoxy)-4-methyl-phenyl]-N-[4-(3-hydroxy-propane-1-sulfonyl)-2-methyl-phenyl]-acetamide] the figure was 78.9 to 79.5 °C; with `Cc1cc(N2CCCCS2(=O)=O)ccc1NC(=O)Cc1ccc(C)c(Oc2cc(Cl)cc(C#N)c2)c1` [Compound I-158, 2-[3-(3-Chloro-5-cyano-phenoxy)-4-methyl-phenyl]-N-[4-(1,1-dioxo-1λ^6-[1,2]thiazinan-2-yl)-2-methyl-phenyl]-acetamide], 84.3 to 85.6 °C.
As for `Cc1cc(C(=O)CN2CCN(C)CC2)ccc1NC(=O)Cc1ccc(C)c(Oc2cc(Cl)cc(C#N)c2)c1` [Compound I-159, 2-[3-(3-Chloro-5-cyano-phenoxy)-4-methyl-phenyl]-N-{2-methyl-4-[2-(4-methyl-piperazin-1-yl)-acetyl]-phenyl}-acetamide], the figure is 62.3 to 64.1 °C.
As for `Cc1cc(N2CC[S+]([O-])CC2)ccc1NC(=O)Cc1ccc(C)c(Oc2cc(Cl)cc(C#N)c2)c1` [Compound I-160, 2-[3-(3-Chloro-5-cyano-phenoxy)-4-methyl-phenyl]-N-[2-methyl-4-(1-oxo-1λ^4-thiomorpholin-4-yl)-phenyl]-acetamide], the figure is 181.3 to 182.1 °C; as for `Cc1cc(N2CCS(=O)(=O)CC2)ccc1NC(=O)Cc1ccc(C)c(Oc2cc(Cl)cc(C#N)c2)c1` [Compound I-161, 2-[3-(3-Chloro-5-cyano-phenoxy)-4-methyl-phenyl]-N-[4-(1,1-dioxo-1λ^6-thiomorpholin-4-yl)-2-methyl-phenyl]-acetamide], 64.8 to 65.4 °C.
On to `CCC(=O)N(C)S(=O)(=O)c1ccc(NC(=O)Cc2ccc(Cl)c(Oc3cc(Cl)cc(C#N)c3)c2F)c(Cl)c1` [Compound I-162, 2-[4-Chloro-3-(3-chloro-5-cyano-phenoxy)-2-fluoro-phenyl]-N-[2-chloro-4-(methyl-propionyl-sulfamoyl)-phenyl]-acetamide], for which the melting point fell in the range of 198.2 to 200.6 °C.
Compound `N#Cc1cc(Oc2c(Br)ccc(CC(=O)Nc3ccc(S(N)(=O)=O)cc3Cl)c2F)cc(C(F)F)c1` [Compound I-165, 2-[4-Bromo-3-(3-cyano-5-difluoromethyl-phenoxy)-2-fluoro-phenyl]-N-(2-chloro-4-sulfamoyl-phenyl)-acetamide] yielded a melting point of 205.4 to 207.7 °C.
With `CNS(=O)(=O)c1ccc(NC(=O)Cc2ccc(Cl)c(Oc3cc(Cl)cc(C#N)c3)c2F)c(Cl)c1` [Compound I-168, 2-[4-Chloro-3-(3-chloro-5-cyano-phenoxy)-2-fluoro-phenyl]-N-(2-chloro-4-methylsulfamoyl-phenyl)-acetamide] the figure was 199.1 to 200 °C.
With `Cc1cc(S(N)(=O)=O)ccc1NC(=O)Cc1ccc(Br)c(Oc2cc(C#N)cc(C(F)F)c2)c1F` [Compound I-169, 2-[4-Bromo-3-(3-cyano-5-difluoromethyl-phenoxy)-2-fluoro-phenyl]-N-(2-methyl-4-sulfamoyl-phenyl)-acetamide] the figure was 223.9 to 225 °C.
Compound `Cc1cc(N2CCCS2(=O)=O)ccc1NC(=O)Cc1ccc(C)c(Oc2cc(Cl)cc(C#N)c2)c1` [Compound I-170, 2-[3-(3-Chloro-5-cyano-phenoxy)-4-methyl-phenyl]-N-[4-(1,1-dioxo-1λ^6-isothiazolidin-2-yl)-2-methyl-phenyl]-acetamide] showed a melting point of 182.5 to 184.6 °C.
With `COCC(=O)N(C)S(=O)(=O)c1ccc(NC(=O)Cc2ccc(Cl)c(Oc3cc(Cl)cc(C#N)c3)c2F)c(Cl)c1` [Compound I-171, 2-[4-Chloro-3-(3-chloro-5-cyano-phenoxy)-2-fluoro-phenyl]-N-{2-chloro-4-[(2-methoxy-acetyl)-methyl-sulfamoyl]-phenyl}-acetamide] the figure was 183.2 to 185.5 °C.
As for `COCCC(=O)N(C)S(=O)(=O)c1ccc(NC(=O)Cc2ccc(Cl)c(Oc3cc(Cl)cc(C#N)c3)c2F)c(Cl)c1` [Compound I-172, 2-[4-Chloro-3-(3-chloro-5-cyano-phenoxy)-2-fluoro-phenyl]-N-{2-chloro-4-[(3-methoxy-propionyl)-methyl-sulfamoyl]-phenyl}-acetamide], the figure is 199.3 to 203 °C; as for `CCOC(=O)C(=O)Nc1ccc(NC(=O)Cc2ccc(C)c(Oc3cc(Cl)cc(C#N)c3)c2)c(C)c1` [Compound I-178, N-(4-{2-[3-(3-Chloro-5-cyano-phenoxy)-4-methyl-phenyl]-acetylamino}-3-methyl-phenyl)-oxalamic acid ethyl ester], 182.5 to 183.9 °C.
`CCc1ccc(CC(=O)Nc2ccc(S(N)(=O)=O)cc2Cl)c(F)c1Oc1cc(C#N)cc(C(F)F)c1` [Compound I-179, N-(2-Chloro-4-sulfamoyl-phenyl)-2-[3-(3-cyano-5-difluoromethyl-phenoxy)-4-ethyl-2-fluoro-phenyl]-acetamide] displayed a melting point of 239.6 to 240.7 °C.
Compound `CCc1ccc(CC(=O)Nc2ccc(S(N)(=O)=O)cc2C)c(F)c1Oc1cc(C#N)cc(C(F)F)c1` [Compound I-180, 2-[3-(3-Cyano-5-difluoromethyl-phenoxy)-4-ethyl-2-fluoro-phenyl]-N-(2-methyl-4-sulfamoyl-phenyl)-acetamide] returned a melting point of 237.6 to 238.4 °C.
With `Cc1cc(CC(=O)Nc2ccc(S(N)(=O)=O)cc2)cc(Oc2cc(Cl)cc(C#N)c2)c1C` [Compound I-182, 2-[3-(3-Chloro-5-cyano-phenoxy)-4,5-dimethyl-phenyl]-N-(4-sulfamoyl-phenyl)-acetamide] the figure was 229.7 to 231.3 °C; with `Cc1cc(S(N)(=O)=O)ccc1NC(=O)Cc1cc(C)c(C)c(Oc2cc(Cl)cc(C#N)c2)c1` [Compound I-183, 2-[3-(3-Chloro-5-cyano-phenoxy)-4,5-dimethyl-phenyl]-N-(2-methyl-4-sulfamoyl-phenyl)-acetamide], 230.8 to 233.4 °C; with `Cc1cc(CC(=O)Nc2ccc(S(N)(=O)=O)cc2Cl)cc(Oc2cc(Cl)cc(C#N)c2)c1C` [Compound I-184, 2-[3-(3-Chloro-5-cyano-phenoxy)-4,5-dimethyl-phenyl]-N-(2-chloro-4-sulfamoyl-phenyl)-acetamide], 224.3 to 225.7 °C.
Consider `Cc1cc(S(N)(=O)=O)ccc1NC(=O)Cc1ccc(Cl)c(Oc2cc(Br)cc(C#N)c2)c1F` [Compound I-185, 2-[3-(3-Bromo-5-cyano-phenoxy)-4-chloro-2-fluoro-phenyl]-N-(2-methyl-4-sulfamoyl-phenyl)-acetamide], for which the melting point was in the range of 246 to 250.6 °C.
As for `Cc1cc(S(N)(=O)=O)ccc1NC(=O)Cc1ccc(Cl)c(Oc2cc(C#N)cc(C#CCO)c2)c1F` [Compound I-186, 2-{4-Chloro-3-[3-cyano-5-(3-hydroxy-prop-1-ynyl)-phenoxy]-2-fluoro-phenyl}-N-(2-methyl-4-sulfamoyl-phenyl)-acetamide], the figure is 170.1 to 173.2 °C; as for `Cc1cc(S(N)(=O)=O)ccc1NC(=O)Cc1ccc(Cl)c(Oc2cc(C#N)cc(C#CCN(C)C)c2)c1F` [Compound I-187, 2-{4-Chloro-3-[3-cyano-5-(3-dimethylamino-prop-1-ynyl)-phenoxy]-2-fluoro-phenyl}-N-(2-methyl-4-sulfamoyl-phenyl)-acetamide], 156.2 to 158.2 °C.
As for `N#Cc1cc(Cl)cc(Oc2c(Cl)ccc(CC(=O)Nc3ccc(S(=O)(=O)NC(=O)CCC(=O)O)cc3Cl)c2F)c1` [Compound I-188, 4-(3-Chloro-4-{2-[4-chloro-3-(3-chloro-5-cyano-phenoxy)-2-fluoro-phenyl]-acetylamino}-benzenesulfonylamino)-4-oxo-butyric acid], the figure is 143.4 to 144 °C.
Turning to `COc1ccc(CC(=O)Nc2ccc(S(N)(=O)=O)cc2Cl)c(F)c1Oc1cc(Cl)cc(C#N)c1` [Compound I-190, 2-[3-(3-Chloro-5-cyano-phenoxy)-2-fluoro-4-methoxy-phenyl]-N-(2-chloro-4-sulfamoyl-phenyl)-acetamide], the melting point was 212 to 212.8 °C.
As for `COc1ccc(CC(=O)Nc2ccc(S(N)(=O)=O)cc2C)c(F)c1Oc1cc(Cl)cc(C#N)c1` [Compound I-191, 2-[3-(3-Chloro-5-cyano-phenoxy)-2-fluoro-4-methoxy-phenyl]-N-(2-methyl-4-sulfamoyl-phenyl)-acetamide], the figure is 239.9 to 240.8 °C.
With `O=C(Cc1ccc(Cl)c(Oc2cccc(Cl)c2)c1)Nc1ccccc1` [Compound I-192, 2-[4-Chloro-3-(3-chloro-phenoxy)-phenyl]-N-phenyl-acetamide] the figure was 126.8 to 127.7 °C; with `CCc1ccc(CC(=O)Nc2ccccc2)cc1Oc1cc(C#N)cc(C#N)c1Cl` [Compound I-208, 2-[3-(2-Chloro-3,5-dicyano-phenoxy)-4-ethyl-phenyl]-N-phenyl-acetamide], 189.3 to 192.3 °C.
